Experimental data published in US20170156324A1 (Dow AgroSciences LLC, priority 2015, published 2017).
Several values for one entry are separate records, joined by “and”; a condition that tells them apart may be missing. Equal entries are not always repeated.

Experiments:
Format in all cases: in vivo
[1] = system: Consolida regalis S. F. Gray (branching larkspur, CNSRE); assay: Field trial, post-emergence % visual weed control, CNSRE
Excerpt: (§1) Except for the trials utilizing the OD formulations, Actirob B was applied at 0.5 or 1.0 liters per hectare (L/ha), or Polyglycol 26-2 was applied at 0.5 to 1.0 L/ha in all respective single and tankmixture treatments being evaluated.
(§2) Trials were established as randomized complete blocks (RCBD) with three to four replicates. Individual treatments were 2-2.5 meters (m) wide and 6-20 m long. An untreated control was included in each trial. All trial sites had naturally occurring populations of weeds.
(§3) Herbicides were applied with backpack or bicycle sprayers using compressed air, nitrogen (N2) or carbon dioxide (CO2) as a propellant. All sprayers delivered a uniform spray pattern that provided thorough coverage of the foliage using a water volume of 150-300 L/ha. All herbicides were applied post-emergence in the spring to early-summer At the time of herbicide applications, winter wheat crops were at the six-leaf to three-tiller stage. Broadleaf and grass weeds were at a similar stage of growth at the time of herbicide application, typically from five leaf to 3 tiller depending on the weed species and time of year.
(§4) The treated plots and control plots were rated blind at various intervals after application. […] The control of the target weeds was visually assessed as percent control, compared to an untreated control plot. The assessments were based on a percent visual reduction in pest plant biomass and/or stand reduction of weed population.
(§5) The efficacy of all treatments was assessed at 13-22 days after application (DAA) for an early season rating, 23-39 DAA for a mid-season rating, and 41-84 DAA for a late-season rating. The data were statistically analyzed using various statistical methods, generally including a Tukey's HSD Factorial Analysis of Variance with a significance level of 5%.
(§6) Colby's equation was used to determine the herbicidal effects expected from the mixtures (Colby, S. R. Calculation of the synergistic and antagonistic response of herbicide combinations. Weeds 1967, 15, 20-22). A t-test (alpha=0.05) between Colby predictions and observed combinations was used to test for significant differences indicating synergy or antagonism using replicate data.
(§7) Expected=A+B+C−(AB+AC+BC)/100+(ABC)/10,000

[2] = system: Matricaria recutita L. (wild chamomile, MATCH); assay: Field trial, post-emergence % visual weed control, MATCH
Excerpt: as §1, §2, §3, §4, §5, §6, §7

[3] = system: Echinochloa crus-galli (L.) P. Beauv. (barnyardgrass, ECHCG); assay: Field trial, post-emergence % visual weed control, ECHCG
Excerpt: as §1, §2, §3, §4, §5, §6, §7

[4] = system: Solanum nigrum L. (black nightshade, SOLNI); assay: Field trial, post-emergence % visual weed control, SOLNI
Excerpt: as §1, §2, §3, §4, §5, §6, §7

[5] = system: Alopecurus myosuroides Huds. (blackgrass, ALOMY); assay: Field trial, post-emergence % visual weed control, ALOMY; conditions: 15DAA
Excerpt: as §1, §2, §3, §4, §5
(§8) Colby's equation was used to determine the herbicidal effects expected from the mixtures (Colby, S. R. Calculation of the synergistic and antagonistic response of herbicide combinations. Weeds 1967, 15, 20-22). […]

[6] = system: Agropyron repens L. (quackgrass, AGRRE); assay: Field trial, post-emergence % visual weed control, AGRRE; conditions: 14DAA
Excerpt: as §1, §2, §3, §4, §5, §8

[7] = system: Galium aparine L. (catchweed bedstraw, GALAP); assay: Field trial, post-emergence % visual weed control, GALAP; conditions: 28DAA
Excerpt: as §1, §2, §3, §4, §5, §8

[8] = system: Centaurea cyanus (cornflower, CENCY); assay: Field trial, post-emergence % visual weed control, CENCY
Excerpt: as §1, §2, §3, §4, §5, §6, §7

[9] = system: Apera spica-venti (L.) Beauv. (windgrass, APESV); assay: Field trial, post-emergence % visual weed control, APESV
Excerpt: as §1, §2, §3, §4, §5, §6, §7

[10] = system: Matricaria inodora (scentless mayweed, MATIN); assay: Field trial, post-emergence % visual weed control, MATIN; conditions: 14DAA
Excerpt: as §1, §2, §3, §4, §5, §6, §7

[11] = system: Lamium purpureum L. (purple deadnettle, LAMPU); assay: Field trial, post-emergence % visual weed control, LAMPU; conditions: 15DAA
Excerpt: as §1, §2, §3, §4, §5, §6, §7

[12] = system: Viola arvensis Murr. (field violet, VIOAR); assay: Field trial, post-emergence % visual weed control, VIOAR
Excerpt: as §1, §2, §3, §4, §5, §6, §7

[13] = system: Stellaria media (L.) Vill. (common chickweed, STEME); assay: Field trial, post-emergence % visual weed control, STEME
Excerpt: as §1, §2, §3, §4, §5, §6, §7

COc1ncc(F)c2nc(S(=O)(=O)Nc3c(F)cccc3F)nn12 [Florasulam, N-(2,6-difluorophenyl)-8-fluoro-5-methoxy[1,2,4]triazolo[1,5-c]pyrimidine-2-sulfonamide]
Mean % Weed Control ([1]; 31DAA, 3 g ai/ha): 75.0% | Mean % Weed Control ([1]; 31DAA, 4 g ai/ha): 75.0% | Mean % Weed Control ([1]; 53DAA, 3 g ai/ha): 78.5% | Mean % Weed Control ([1]; 53DAA, 4 g ai/ha): 79.5% | Mean % Weed Control ([1]; 84DAA, 3 g ai/ha): 79% | Mean % Weed Control ([1]; 84DAA, 4 g ai/ha): 80% | Mean % Weed Control ([2]; 15DAA, 3.75 g ai/ha): 10.0% | Mean % Weed Control ([2]; 61DAA, 3.75 g ai/ha): 85.0% and 67.4% | Mean % Weed Control ([2]; 78DAA, 3.75 g ai/ha): 76.3% | Mean % Weed Control ([3]; 14DAA, 6.25 g ai/ha): 20.0% | Mean % Weed Control ([3]; 29DAA, 6.25 g ai/ha): 10.0% | Mean % Weed Control ([3]; 56DAA, 6.25 g ai/ha): 10.0% | Mean % Weed Control ([4]; 29DAA, 6.25 g ai/ha): 40.0% | Mean % Weed Control ([4]; 56DAA, 6.25 g ai/ha): 20.0% | Mean % Weed Control ([5]; 3 g ai/ha): 2.5% | Mean % Weed Control ([6]; 4 g ai/ha): 0.0% | Mean % Weed Control ([7]; 3 g ai/ha): 57.5% | Mean % Weed Control ([8]; 28DAA, 3 g ai/ha): 48.8% | Mean % Weed Control ([8]; 28DAA, 4 g ai/ha): 75.0% | Mean % Weed Control ([8]; 56DAA, 3 g ai/ha): 27.5% and 48.8% | Mean % Weed Control ([8]; 77DAA, 3 g ai/ha): 40.0% | Mean % Weed Control ([8]; 77DAA, 4 g ai/ha): 82.5% | Mean % Weed Control ([8]; 84DAA, 4 g ai/ha): 30.0% | Mean % Weed Control ([9]; 14DAA, 3 g ai/ha): 0.0% | Mean % Weed Control ([9]; 14DAA, 4 g ai/ha): 0.0% | Mean % Weed Control ([9]; 28DAA, 3 g ai/ha): 0.0% | Mean % Weed Control ([9]; 28DAA, 4 g ai/ha): 0.0% | Mean % Weed Control ([9]; 56DAA, 3 g ai/ha): 0.0% | Mean % Weed Control ([9]; 56DAA, 4 g ai/ha): 0.0% | Mean % Weed Control ([10]; 3 g ai/ha): 30.0% | Mean % Weed Control ([10]; 4 g ai/ha): 35.0% | Mean % Weed Control ([11]; 3.75 g ai/ha): 0.0% | Mean % Weed Control ([12]; 14DAA, 3 g ai/ha): 0.0% | Mean % Weed Control ([12]; 56DAA, 4 g ai/ha): 20.0% | Mean % Weed Control ([13]; 15DAA, 3.75 g ai/ha): 0.0% | Mean % Weed Control ([13]; 61DAA, 3.75 g ai/ha): 68.8% and 56.1% | Mean % Weed Control ([13]; 78DAA, 3.75 g ai/ha): 31.3%

COC(=O)c1nc(-c2ccc(Cl)c(OC)c2F)cc(N)c1Cl [Halauxifen-Methyl, methyl 4-amino-3-chloro-6-(4-chloro-2-fluoro-3-methoxyphenyl)pyridine-2-carboxylate]
Mean % Weed Control ([1]; 31DAA, 3 g ae/ha): 68.3% | Mean % Weed Control ([1]; 31DAA, 4 g ae/ha): 70.8% | Mean % Weed Control ([1]; 53DAA, 3 g ae/ha): 70.0% | Mean % Weed Control ([1]; 53DAA, 4 g ae/ha): 72.0% | Mean % Weed Control ([1]; 84DAA, 3 g ae/ha): 70.0% | Mean % Weed Control ([1]; 84DAA, 4 g ae/ha): 72.5% | Mean % Weed Control ([2]; 15DAA, 4.8 g ae/ha): 0.0% | Mean % Weed Control ([2]; 61DAA, 4.8 g ae/ha): 0.0% | Mean % Weed Control ([2]; 61DAA, 6 g ae/ha): 1.3% and 3.2% | Mean % Weed Control ([2]; 78DAA, 4.8 g ae/ha): 6.3% | Mean % Weed Control ([2]; 78DAA, 6 g ae/ha): 6.3% | Mean % Weed Control ([3]; 14DAA, 3 g ae/ha): 0.0% | Mean % Weed Control ([3]; 29DAA, 3 g ae/ha): 0.0% | Mean % Weed Control ([3]; 56DAA, 3 g ae/ha): 0.0% | Mean % Weed Control ([4]; 29DAA, 3 g ae/ha): 10.0% | Mean % Weed Control ([4]; 56DAA, 3 g ae/ha): 0.0% | Mean % Weed Control ([5]; 4 g ae/ha): 0.0% | Mean % Weed Control ([6]; 3 g ae/ha): 0.0% | Mean % Weed Control ([7]; 3 g ae/ha): 0.0% | Mean % Weed Control ([8]; 28DAA, 3 g ae/ha): 75.0% | Mean % Weed Control ([8]; 77DAA, 3 g ae/ha): 82.5% | Mean % Weed Control ([8]; 84DAA, 3 g ae/ha): 1.3% | Mean % Weed Control ([8]; 84DAA, 4 g ae/ha): 27.5% | Mean % Weed Control ([9]; 14DAA, 3 g ae/ha): 0.0% | Mean % Weed Control ([9]; 14DAA, 4 g ae/ha): 0.0% | Mean % Weed Control ([9]; 28DAA, 3 g ae/ha): 0.0% | Mean % Weed Control ([9]; 28DAA, 4 g ae/ha): 0.0% | Mean % Weed Control ([9]; 56DAA, 3 g ae/ha): 0.0% | Mean % Weed Control ([10]; 3 g ae/ha): 0.0% | Mean % Weed Control ([10]; 4 g ae/ha): 0.0% | Mean % Weed Control ([11]; 4.8 g ae/ha): 72.5% | Mean % Weed Control ([11]; 6 g ae/ha): 55.0% | Mean % Weed Control ([12]; 14DAA, 3 g ae/ha): 0.0% | Mean % Weed Control ([12]; 14DAA, 4 g ae/ha): 0.0% | Mean % Weed Control ([12]; 56DAA, 3 g ae/ha): 0.0% | Mean % Weed Control ([13]; 15DAA, 4.8 g ae/ha): 0.0% | Mean % Weed Control ([13]; 15DAA, 6 g ae/ha): 0.0% | Mean % Weed Control ([13]; 61DAA, 4.8 g ae/ha): 0.0% | Mean % Weed Control ([13]; 61DAA, 6 g ae/ha): 1.3% and 3.2% | Mean % Weed Control ([13]; 78DAA, 4.8 g ae/ha): 6.3% | Mean % Weed Control ([13]; 78DAA, 6 g ae/ha): 8.8%
